Laboratory results taken from ChEMBL document CHEMBL5120767, “Phlegmacaritones A and B, a Pair of Serratane-Related Triterpenoid Epimers with an Unprecedented Carbon Skeleton from Phlegmariurus carinatus” (J Nat Prod, 2022).
Active and inactive are the calls of the source. The calls are words filed in the database; no cut-off is given here.

Legend:
Type in all cases: functional, cell-based
ONS [1] = experiment: Effect on human ONS cells assessed as increase in mitochondrial intensity at 5 uM after 24 hrs by fluorescence microscopic analysis
ONS [2] = experiment: Effect on human ONS cells assessed as increase in LC3b intensity at 5 uM after 24 hrs by fluorescence microscopic analysis
ONS [3] = experiment: Effect on human ONS cells assessed as decrease in EEA1-marked early endosomes at 5 uM after 24 hrs by fluorescence microscopic analysis
ONS [4] = experiment: Effect on human ONS cells assessed as decrease in alpha-tubulin intensity at 5 uM after 24 hrs by fluorescence microscopic analysis
ONS [5] = experiment: Induction of phenotypical changes in human ONS cells at 5 uM after 24 hrs
ONS [6] = experiment: Effect on human ONS cells assessed as increase in EEA1-marked early endosomes at 5 uM after 24 hrs by fluorescence microscopic analysis
ONS [7] = experiment: Effect on human ONS cells assessed as increase in alpha-tubulin intensity at 5 uM after 24 hrs by fluorescence microscopic analysis

Structure (SMILES): CC1(C)[C@H](O)CC[C@]2(C)[C@H]3CC[C@H]4[C@@](C)(CC[C@@H]5[C@]4(C)CC[C@@H](O)[C@]5(C)C(=O)O)C[C@@H]3C(=O)C[C@@H]12
- Activity (ONS [1]): Active
- Activity (ONS [2]): Active
- Activity (ONS [3]): Active
- Activity (ONS [4]): Active
- Activity (ONS [5]): Active

Structure (SMILES): C=C1C=C2C[C@]3(C)CC[C@@H]4[C@](C)(CC[C@@H](O)[C@]4(C)CO)[C@H]3CC[C@@H]2[C@@]2(C)CC[C@@H](O)[C@@](C)(CO)[C@]12C
- Activity (ONS [6]): Active

Structure (SMILES): C[C@@]12CC[C@@H]3[C@](C)(CC[C@@H](O)[C@]3(C)C(=O)O)[C@H]1CC[C@H]([C@@]1(C)CC[C@@H](O)[C@@]3(C)COC(=O)C[C@@H]31)C(=O)C2
- Activity (ONS [6]): Active

Structure (SMILES): C=C1C=C2C[C@]3(C)CC[C@@H]4[C@](C)(CC[C@@H](O)[C@]4(C)CO)[C@H]3CC[C@@H]2[C@@]2(C)CC[C@@H](O)C(C)(C)[C@H]12
- Activity (ONS [7]): Active
- Activity (ONS [1]): Active
- Activity (ONS [2]): Active
- Activity (ONS [3]): Active

Structure (SMILES): CC1(C)[C@@H](OC(=O)CCc2ccc(O)c(O)c2)CC[C@@]2(C)[C@H]1CC[C@@]1(C)CC3CC[C@@H]4[C@](C)(CC[C@@H](O)[C@]4(C)CO)[C@H]3CC[C@@H]12 (stereo not given in full)
- Activity (ONS [7]): Active
- Activity (ONS [1]): Active
- Activity (ONS [2]): Active
- Activity (ONS [3]): Active

Structure (SMILES): C=C1C=C2C[C@]3(C)CC[C@@H]4[C@](C)(CC[C@@H](O)[C@]4(C)C(=O)O)[C@H]3CC[C@@H]2[C@@]2(C)CC[C@@H](O)C(C)(C)[C@H]12
- Activity (ONS [7]): Active
- Activity (ONS [1]): Active
- Activity (ONS [2]): Active
- Activity (ONS [3]): Active

Structure (SMILES): CC1(C)[C@H](O)CC[C@]2(C)[C@H]3CC[C@H]4[C@@](C)(CC[C@@H]5[C@]4(C)CC[C@@H](O)[C@]5(C)C(=O)O)C[C@H]3C(=O)C[C@@H]12
- Activity (ONS [7]): Active
- Activity (ONS [1]): Active
- Activity (ONS [2]): Active
- Activity (ONS [3]): Active

Structure (SMILES): C[C@@]12CC[C@@H]3[C@](C)(CC[C@@H](O)[C@]3(C)C(=O)O)[C@H]1CC[C@H]1[C@H](C2)C(=O)C[C@H]2[C@](C)(CO)[C@@H](O)CC[C@@]21C
- Activity (ONS [6]): Active

Structure (SMILES): C[C@H]1CC(=O)[C@]23CCCN4CCC[C@]2(C4)C(=O)C[C@@H]3[C@H]1O
- Activity (ONS [5]): Active

Structure (SMILES): CC1(C)[C@H](O)CC[C@]2(C)[C@H]3CC[C@H]4[C@@](C)(CC[C@@H]5[C@]4(C)CC[C@@H](O)[C@]5(C)CO)CC3=CC(=O)[C@@]12C
- Activity (ONS [6]): Active

Structure (SMILES): C=C1C=C2C[C@]3(C)CC[C@H]4C(C)(C)[C@H](O)CC[C@]4(C)[C@H]3CC[C@@H]2[C@@]2(C)CC[C@@H](O)C(C)(C)[C@H]12
- Activity (ONS [7]): Active
- Activity (ONS [1]): Active
- Activity (ONS [2]): Active
- Activity (ONS [3]): Active

Structure (SMILES): CC1(C)[C@@H](OC(=O)CCc2ccc(O)c(O)c2)CC[C@@]2(C)[C@H]1CC[C@@]1(C)CC3CC[C@H]4C(C)(C)[C@@H](O)CC[C@]4(C)[C@H]3CC[C@@H]12 (stereo not given in full)
- Activity (ONS [7]): Active
- Activity (ONS [1]): Active
- Activity (ONS [2]): Active
- Activity (ONS [3]): Active

Structure (SMILES): C=C1C=C2C[C@]3(C)CC[C@@H]4[C@](C)(CC[C@@H](O)[C@]4(C)CO)[C@H]3CC[C@@H]2[C@@]2(C)CC[C@@H](O)[C@](C)(CO)[C@H]12
- Activity (ONS [6]): Active

Structure (SMILES): C=C1C=C2C[C@]3(C)CC[C@H]4C(C)(C)[C@@H](O)CC[C@]4(C)[C@H]3CC[C@@H]2[C@@]2(C)CC[C@@H](O)[C@](C)(CO)[C@H]12
- Activity (ONS [7]): Active
- Activity (ONS [1]): Active
- Activity (ONS [2]): Active
- Activity (ONS [3]): Active
- Activity (ONS [5]): Active

Structure (SMILES): CC1(C)[C@@H](O)CC[C@]2(C)[C@H]3CC[C@H]4[C@@](C)(CC[C@@H]5[C@]4(C)CC[C@H](O)[C@]5(C)COC(=O)CCc4ccc(O)c(O)c4)CC3=CC[C@@H]12
- Activity (ONS [7]): Active
- Activity (ONS [1]): Active
- Activity (ONS [2]): Active
- Activity (ONS [3]): Active

Structure (SMILES): CC1(C)[C@@H](O)CC[C@]2(C)[C@H]3CC[C@H]4[C@@](C)(CC[C@@H]5[C@]4(C)CC[C@H](OC(=O)CCc4ccc(O)c(O)c4)[C@]5(C)CO)CC3CC[C@@H]12 (stereo not given in full)
- Activity (ONS [6]): Active
